The values below come from US7674795B2, “Fluorene derivatives, composition containing said derivatives and the use thereof” (Aventis Pharma SA, priority 2005, dated 2010).

Structures can show the parent of a compound that is named as a salt.

Hsp82, sequence (P02829 whole entry): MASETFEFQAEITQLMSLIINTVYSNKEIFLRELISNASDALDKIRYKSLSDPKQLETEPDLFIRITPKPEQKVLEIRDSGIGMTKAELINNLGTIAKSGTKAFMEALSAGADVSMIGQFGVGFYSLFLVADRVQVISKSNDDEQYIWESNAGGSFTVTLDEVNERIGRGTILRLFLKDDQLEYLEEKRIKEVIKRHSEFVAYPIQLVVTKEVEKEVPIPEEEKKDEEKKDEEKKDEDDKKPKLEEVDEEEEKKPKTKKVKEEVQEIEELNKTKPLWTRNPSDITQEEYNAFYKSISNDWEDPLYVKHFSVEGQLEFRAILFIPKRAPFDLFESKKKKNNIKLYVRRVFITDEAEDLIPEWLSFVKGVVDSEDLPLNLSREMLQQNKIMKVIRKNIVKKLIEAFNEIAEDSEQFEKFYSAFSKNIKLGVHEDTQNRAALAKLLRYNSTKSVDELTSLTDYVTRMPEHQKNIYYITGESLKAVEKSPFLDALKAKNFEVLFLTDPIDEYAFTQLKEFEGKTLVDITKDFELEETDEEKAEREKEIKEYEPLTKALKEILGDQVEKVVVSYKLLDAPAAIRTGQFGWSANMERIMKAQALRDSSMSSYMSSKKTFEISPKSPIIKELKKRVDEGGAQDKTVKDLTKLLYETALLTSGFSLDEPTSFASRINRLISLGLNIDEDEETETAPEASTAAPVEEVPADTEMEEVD

This assay concerns the target Hsp82 (Saccharomyces cerevisiae, UniProt P02829). Nature of the assay: PK/LDH enzyme coupling test of the ATPase activity of Hsp82 (NADH decrease at 340 nm). As to conditions: 1 μM Hsp82, 250 μM ATP, 37° C., pyruvate kinase/lactate dehydrogenase coupling, read-out: Hsp82 ATPase IC50. It is filed as biochemical. From the text:
The formation of ADP due to the ATPase activity of Hsp82 was utilized for developing another method of evaluating the enzymatic activity of this enzyme by application of an enzyme coupling system employing pyruvate kinase (PK) and lactate dehydrogenase (LDH). In this spectrophotometric method of the kinetic type, the PK catalyses the formation of ATP and of pyruvate starting from phosphoenol-pyruvate (PEP) and the ADP produced by HSP82. The pyruvate that formed, an LDH substrate, is then converted to lactate in the presence of NADH. In this case, the decrease in the concentration of NADH, measured by the decrease in absorbance at wavelength of 340 nm, is proportional to the concentration of ADP produced by HSP82. […] This mixture is preincubated at 37° C. for 30 min before adding 3.77 units of LDH and 3.77 units of PK. The reaction is started by adding the product to be evaluated, in variable concentrations, and of Hsp82, at a concentration of 1 μM. The enzymatic activity of Hsp82 is then measured continuously in a microplate reader at 37° C., at wavelength of 340 nm. The initial reaction rate is found by measuring the slope of the tangent at the origin of the recorded curve. The enzymatic activity is expressed as μM of ADP formed per minute. The effect of the various products tested is expressed as percentage of inhibition of ATPase activity, using the following codes: • A: […]
Usually IC50 stands for the concentration that gives 50% inhibition. With `O=C(NC1c2ccccc2-c2c(-c3nc4ccncc4[nH]3)cccc21)c1cccc2cc(O)ccc12` (racemic) [Example 34, hydrochloride of [4-(3H-imidazo[4,5-c]pyridin-2-yl)-9H-fluoren-9(R,S)-yl]amide of 6-hydroxy-naphthalene-1-carboxylic acid], the IC50 was 1 to 10 µM.
For `NC(=O)C[C@H](N)C(=O)NC1c2ccccc2-c2c(-c3nc4cnccc4[nH]3)cccc21` (stereo partly drawn) [Example 63, hydrochloride of (S)-2-amino-N1-[4-(3H-imidazo[4,5-c]pyridin-2-yl)-9H-fluoren-9(R,S)-yl]-succinamide] the value was 1 to 10 µM; for `O=C(NC1c2ccccc2-c2c(-c3nc4ccncc4[nH]3)cccc21)c1cc[nH]n1` (racemic) [Example 39, [4-(3H-imidazo[4,5-c]pyridin-2-yl)-9H-fluoren-9(R,S)-yl]amide trifluoroacetate of 1H-pyrazole-3-carboxylic acid], 1 to 10 µM; for `OC1c2ccccc2-c2c(-c3nc4cnccc4[nH]3)cccc21` (racemic) [Example 3, 4-(3H-imidazo[4,5-c]pyridin-2-yl)-9H-fluoren-9(R,S)-ol], 10 to 100 µM.
For `NC1c2ccccc2-c2c(-c3nc4cnccc4[nH]3)cccc21` (racemic) [Example 6, 4-(3H-imidazo[4,5-c]pyridin-2-yl)-9H-fluorene-9(R,S)-amine], the IC50 lay in the range of 10 to 100 µM.
To `O=C(NC1c2ccccc2-c2c(-c3nc4ccncc4[nH]3)cccc21)c1ccnc(C(=O)O)c1` (racemic) [Example 109, 4-[4-(3H-imidazo[4,5-c]pyridin-2-yl)-9H-fluoren-9(R,S)-ylcarbamoyl]-pyridine-2-carboxylic acid] belongs 10 to 100 µM; to `NC(=O)[C@H](N)CC(=O)NC1c2ccccc2-c2c(-c3nc4cnccc4[nH]3)cccc21` (mixture of isomers) [Example 62, (R)-2-amino-N4-[4-(3H-imidazo[4,5-c]pyridin-2-yl)-9H-fluoren-9(R,S)-yl]-succinamide], 1 to 10 µM.
To `O=C(Cc1ccc(Cl)nc1)NC1c2ccccc2-c2c(-c3nc4cnccc4[nH]3)cccc21` (racemic) [Example 25, 2-(6-chloropyridin-3-yl)-N-[4-(3H-imidazo[4,5-c]pyridin-2-yl)-9H-fluoren-9(R,S)-yl]-acetamide] belongs 1 to 10 µM; to `c1ccc2c(c1)-c1c(-c3nc4ccncc4[nH]3)cccc1C2NCc1cccc2ncccc12` (racemic) [Example 26, trifluoroacetate of N-[4-(3H-imidazo[4,5-c]pyridin-2-yl)-9H-fluoren-9(R,S)-yl]-quinolin-5-yl-methylamine], 1 to 10 µM; to `Nc1nc(CC(=O)NC2c3ccccc3-c3c(-c4nc5cnccc5[nH]4)cccc32)cs1` (racemic) [Example 24, trifluoroacetate of 2-(2-amino-thiazol-4-yl)-N-[4-(3H-imidazo[4,5-c]pyridin-2-yl)-9H-fluoren-9(R,S)-yl]-acetamide], 1 to 10 µM.
For `c1ccc2c(c1)-c1c(-c3nc4cnccc4[nH]3)cccc1C2NCc1ccc2[nH]ccc2c1` (racemic) [Example 18, N-[4-(3H-imidazo[4,5-c]pyridin-2-yl)-9H-fluoren-9(R,S)-yl]-(1H-indol-5-ylmethyl)-amine] the value was 10 to 100 µM.
For `COCCCNC(=O)c1cc(C(=O)NC2c3ccccc3-c3c(-c4nc5ccncc5[nH]4)cccc32)ccn1` (racemic) [Example 112, 4-{[4-(3H-imidazo[4,5-c]pyridin-2-yl)-9H-fluoren-9(R,S)-yl]amide}-2-[(3-methoxy-propyl)-amide] of pyridine-2,4-dicarboxylic acid], the IC50 was 1 to 10 µM.
For `O=C(NCc1ccc(Cl)nc1)C1c2ccccc2-c2c(-c3nc4cnccc4[nH]3)cccc21` (racemic) [Example 2, (6-chloropyridin-3-ylmethyl)-amide of 4-(1H-imidazo[4,5-c]pyridin-2-yl)-9H-fluorene-9(R,S)-carboxylic acid] the value was 10 to 100 µM; for `Cc1cc(C(=O)NC2c3ccccc3-c3c(-c4nc5ccncc5[nH]4)cccc32)cc(O)n1` (racemic) [Example 121, 2-hydroxy-N-[4-(3H-imidazo[4,5-c]pyridin-2-yl)-9H-fluoren-9(R,S)-yl]-6-methyl-isonicotinamide], 1 to 10 µM.
For `O=C(OC1c2ccccc2-c2c(-c3nc4ccncc4[nH]3)cccc21)c1ccncc1` (racemic) [Example 122, 4-(3H-imidazo[4,5-c]pyridin-2-yl)-9H-fluoren-9(R,S)-yl ester of isonicotinic acid] the value was less than 1 µM; for `c1ccc(CNN=C2c3ccccc3-c3c2cccc3-c2nc3cnccc3[nH]2)cc1` (mixture of isomers) [Example 8, N-benzyl-N′-[4-(1H-imidazo[4,5-c]pyridin-2-yl)-fluoren-9-ylidene]-hydrazine, 55/45 mixture of E and Z isomers], 1 to 10 µM.
For the compound `O/N=C1/c2ccccc2-c2c1cccc2-c1nc2cnccc2[nH]1` [Example 23, 4-(3H-imidazo[4,5-c]pyridin-2-yl)-fluoren-9-one oxime (E)], the IC50 was less than 1 µM.
To `O=C(NC1c2ccccc2-c2c(-c3nc4ccncc4[nH]3)cccc21)c1ccncc1F` (racemic) [Example 114, 3-fluoro-N-[4-(3H-imidazo[4,5-c]pyridin-2-yl)-9H-fluoren-9(R,S)-yl]-isonicotinamide] belongs 1 to 10 µM.
As to `NC(=O)c1cccc(C(=O)NC2c3ccccc3-c3c(-c4nc5ccncc5[nH]4)cccc32)c1` (racemic) [Example 126, N-[4-(3H-imidazo[4,5-c]pyridin-2-yl)-9H-fluoren-9(R,S)-yl]isophthalamide], the IC50 fell in the range of 1 to 10 µM.
For `Cc1cnccc1C(=O)NC1c2ccccc2-c2c(-c3nc4ccncc4[nH]3)cccc21` (racemic) [Example 96, N-[4-(3H-imidazo[4,5-c]pyridin-2-yl)-9H-fluoren-9(R,S)-yl]-3-methyl-isonicotinamide] the value was 1 to 10 µM; for `O=C(NC1c2ccccc2-c2c(-c3nc4ccncc4[nH]3)cccc21)c1cc(N2CCCCC2)nc2ccccc12` (racemic) [Example 119, [4-(3H-imidazo[4,5-c]pyridin-2-yl)-9H-fluoren-9(R,S)-yl]amide of 2-piperidin-1-yl-quinoline-4-carboxylic acid], 1 to 10 µM; for `O=C(NC1c2ccccc2-c2c(-c3nc4ccncc4[nH]3)cccc21)c1cc(C2CC2)nc2ccccc12` (stereo not shown) [Example 85, [4-(3H-imidazo[4,5-c]pyridin-2-yl)-9H-fluoren-9-yl]amide of 2-cyclopropyl-quinoline-4-carboxylic acid], 1 to 10 µM.
`O=C(NC1c2ccccc2-c2c(-c3nc4cnccc4[nH]3)cccc21)c1ccc[n+]([O-])c1` (racemic) [Example 56, N-[4-(3H-imidazo[4,5-c]pyridin-2-yl)-9H-fluoren-9(R,S)-yl]-1-oxynicotinamide]: the IC50 lay within 1 to 10 µM.
For `O=C(NC1c2ccccc2-c2c(-c3nc4ccncc4[nH]3)cccc21)C(=O)c1ccoc1` (racemic) [Example 36, 2-furan-3-yl-N-[4-(3H-imidazo[4,5-c]pyridin-2-yl)-9H-fluoren-9(R,S)-yl]-2-oxo-acetamide] the value was 1 to 10 µM.
On to `Nc1cccc(C(=O)NC2c3ccccc3-c3c(-c4nc5ccncc5[nH]4)cccc32)c1` (racemic) [Example 115, 3-amino-N-[4-(3H-imidazo[4,5-c]pyridin-2-yl)-9H-fluoren-9(R,S)-yl]-benzamide], for which the IC50 was 10 to 100 µM.
For `O=C(NC1c2ccccc2-c2c(-c3nc4ccncc4[nH]3)cccc21)c1ccncc1Br` (racemic) [Example 98, 3-bromo-N-[4-(3H-imidazo[4,5-c]pyridin-2-yl)-9H-fluoren-9(R,S)-yl]-isonicotinamide] the value was 1 to 10 µM; for `O=C(NC1c2ccccc2-c2c(-c3nc4ccncc4[nH]3)cccc21)c1ccc2[nH]c(=O)[nH]c2c1` (racemic) [Example 43, [4-(3H-imidazo[4,5-c]pyridin-2-yl)-9H-fluoren-9(R,S)-yl]amide of 2-oxo-2,3-dihydro-1H-benzimidazole-5-carboxylic acid], 10 to 100 µM.
For `ON=C1c2ccccc2-c2c1cccc2-c1nc2cnccc2[nH]1` (mixture of isomers) [Example 5, 4-(3H-imidazo[4,5-c]pyridin-2-yl)-fluoren-9-one oxime (Z, E)] the value was 1 to 10 µM.
For `CC(=O)NC1c2ccccc2-c2c(-c3nc4ccncc4[nH]3)cccc21` (racemic) [Example 72, N-[4-(3H-imidazo[4,5-c]pyridin-2-yl)-9H-fluoren-9(R,S)-yl]-acetamide] the value was 1 to 10 µM; for `ON=C1c2ccccc2-c2c1cccc2-c1nc2ccccc2[nH]1` (racemic) [Example 68, 4-(1H-benzimidazol-2-yl)-fluoren-9-one oxime (Z,E)], 10 to 100 µM.
Consider `O=C(NC1c2ccccc2-c2c(-c3nc4ccncc4[nH]3)cccc21)c1cc[n+]([O-])cc1` (racemic) [Example 81, N-[4-(3H-imidazo[4,5-c]pyridin-2-yl)-9H-fluoren-9(R,S)-yl]-1-oxyisonicotinamide], for which the IC50 is 1 to 10 µM.
